Data published in patent publication US9682060B2, “Small molecules that induce intrinsic pathway apoptosis” (The Board of Trustees of the University of Illinois, priority 2015, dated 2017).
“Also recorded” adds a separate entry of the source.

Legend:
MCF10A = test: Raptinal toxicity in various cell lines, 24 hour IC50; assay type: cell-based; details: MCF-10A; MCF10A (Human Breast Tissue); 24 hour incubation; mean ± SD
SKW 6.4 cells [1] = test: Immunoblotting of caspase activation; assay type: cell-based, Human; details: 10 μM
Procedure: U-937 cells (3×10^6 cells in 2 mL RPMI) or SKW 6.4 cells (5×10^6 cells in 2 mL RPMI) were treated with compound (1% final DMSO v/v) for the appropriate period of time. After centrifugation and washing with PBS, cells were lysed with RIPA lysis buffer containing protease cocktail inhibitor III (Calbiochem) and cell debris removed by centrifugation (16000×g 5 min). The lysate concentrations were normalized after determination of protein concentration by the Bradford assay and whole cell lysate (40-60 μg) was resolved by 4-20% gradient SDS-PAGE gel electrophoresis at 120 V for 70 min after which proteins were transferred onto PVDF membranes (60 V for 2 hours) and blocked in 5% BSA or fat-free milk in TBST (as per primary antibody manufacturer's instructions) overnight at 4° C. The membranes were blotted for molecules of interest with primary antibody (1:1000 in 5% BSA or milk in TBST) overnight at 4° C. The bound primary antibodies were detected using appropriate secondary HRP conjugated antibodies (1:5000 in TBST) for 1 hour at room temperature and visualized by ECL autoradiography or with an Image Quant LAS 4010. The membranes were stripped in acidic methanol, blocked and re-probed as necessary.

recombinant procaspase-3 = molecular target: T1, recombinant procaspase-3 (Homo sapiens, UniProt P42574); test: In vitro activation of procaspase-3; assay type: biochemical; details: up to 100 μM; 250 nM procaspase-3; Ac-DEVD-AFC cleavage
T1 construct: His tag (inferred from the nickel-NTA purification); made in house
T1 sequence (P42574 whole entry): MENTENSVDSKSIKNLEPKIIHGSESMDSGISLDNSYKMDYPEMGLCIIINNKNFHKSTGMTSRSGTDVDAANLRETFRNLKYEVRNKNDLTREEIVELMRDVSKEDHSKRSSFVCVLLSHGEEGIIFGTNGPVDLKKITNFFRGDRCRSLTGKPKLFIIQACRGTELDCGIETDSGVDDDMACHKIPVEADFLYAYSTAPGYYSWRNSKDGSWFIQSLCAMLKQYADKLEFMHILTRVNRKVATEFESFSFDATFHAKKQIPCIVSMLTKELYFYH
Procedure: In Vitro Activation of Procaspase-3.
Procaspase-3 was expressed as described previously and purified with Qiagen nickel-NTA resin (Hsu et al., 2012). Increasing concentrations of Raptinal (0, 10, 25, 50 and 100 μM) and 25 μM 1541B were assessed for their capacity to enhance the activity of procaspase-3 over time. 250 nM procaspase-3 was treated with compounds in caspase activity buffer (50 mM HEPES, 50 mM KCl, 0.1 mM EDTA, 10 mM DTT, 0.01% Triton X-100, pH 7.4) and activity was assessed by cleavage of Ac-DEVD-AFC (50 μM) at designated time points.

SKW 6.4 cells [2] = test: Cytochrome c release by immunoblot and flow cytometry; assay type: cell-based, Human; details: 10 μM
Procedure: (§1) Cytochrome c Release by Immunoblot.
(§2) U-937 cells (3×10^6 cells in 2 mL RPMI) or SKW 6.4 cells (5×10^6 cells in 2 mL RPMI) were treated with 10 μM Raptinal for 10, 20, 30, 45 or 60 minutes in a 12-well plate. Cells were centrifuged (1000×g. 2 min), washed with ice-cold PBS and resuspended in cold 200 μL digitonin permeabilization buffer (75 mM NaCl, 1 mM Sodium phosphate monobasic, 8 mM sodium phosphate dibasic, 250 mM sucrose, 190 μg/mL digitonin, protease cocktail inhibitor, pH 7.5) and placed on ice for 5 min. Cell permeability (>95%) was confirmed by trypan blue. The permeabilized cells were centrifuged (14000×g, 5 min) and 150 μL of supernatant (cytosolic fraction) was saved. The pellet (mitochondrial fraction) was washed in 200 μL digitonin permeabilization buffer and lysed in 25 μL RIPA lysis buffer. […]
(§3) Suspension cells (2.5×10^6 SKW 6.4 cells or 1.5×10^6 U-937 cells in 1 mL RPMI) were treated with 10 μM Raptinal in a 24 well plate for 10, 20, 30, 45 and 60 min. The cells were centrifuged (1000×g, 2 min), washed with cold PBS and resuspended in cold permeabilization buffer (PBS containing 50 μg/mL digitonin and 100 mM KCl) and placed on ice for 5 min after which >95% of cells were permeabilized as determined by trypan blue. […] The cells were pelleted and washed with PBS (3 mL) and resuspended in PBS (1 mL) and analyzed by flow cytometry. […]

U-937 cells [3] = test: as above; assay type: cell-based, Human; details: 10 μM
Procedure: as §1, §2, §3

B16-F10 melanoma = test: Syngeneic subcutaneous tumor model; assay type: in vivo, C57BL/6 mice; details: 20 mg/kg IP once daily for 3 days
Procedure: All animal studies were performed with prior approval by the University of Illinois at Urbana-Champaign IACUC committee. […]. Seven days (for B16-F10) and six days (for 4T1) after inoculation, the mice were randomized based upon tumor size with 7 mice per group. Vehicle or compound was administered intraperitoneally as a corn oil DMSO suspension (300 μL of 10% DMSO in trans fat-free corn oil, 20 mg/kg) once daily for 3 consecutive days for B16-F10 and 4 consecutive days for 4T1 models. Tumor measurements were performed every other day using a caliper and tumor volume was calculated using the equation (0.5×l×w^2).

caspase-3/-7 = test: Caspase activity assay in cell lysate (Ac-DEVD-AFC); assay type: cell-based; details: 10 μM
U-937 cells [4] = test: Annexin V/PI cell viability analysis; details: U-937 cells; 10 μM; time course AV/PI, based on data in FIG. 1F

In the case of O=CC1(C2(C=O)c3ccccc3-c3ccccc32)c2ccccc2-c2ccccc21 [Raptinal, [9,9′]bifluorenyl-9,9′-dicarbaldehyde], the IC50 (MCF10A) is reported as 3000 ± 200 nM, the “time of activation of initiator caspase-9” value (SKW 6.4 cells [1]) is reported as 20 min and the “time to complete cleavage of procaspase-9, procaspase-8 and procaspase-3” value (SKW 6.4 cells [1]) is reported as ≤ 45 min. For the same compound, the “procaspase-3 activation (immunoblot)” value (SKW 6.4 cells [1]; one hour of exposure) was “the only agent capable of inducing procaspase-3 activation”, the “direct activation of recombinant procaspase-3 (enzymatic activity)” value (recombinant procaspase-3) was “does not directly activate; also recorded: no increase in enzymatic activity” and the “time of earliest / partial cytochrome c release” value (SKW 6.4 cells [2]) was 10 min. For the same compound, the “time of earliest / partial cytochrome c release” value (U-937 cells [3]) was 10 min, the “retardation of tumor mass relative to controls” value (B16-F10 melanoma) was 60% and the “retardation of tumor volume relative to controls” value (B16-F10 melanoma) was 60%. The “induction of caspase-3/-7 activity compared to other apoptosis inducing agents” value (caspase-3/-7) was “faster induction of caspase-3/-7 activity and higher peak levels” and the “Time to 50% death” value (U-937 cells [4]) was 1.5 h.
